What was measured:
Type in all cases: cell-based
[1] = Cell cytotoxicity 50 assay (CC50), MB200 cells, cell titer glo; settings: human
Description: Cell Cytotoxicity 50 Assay Protocol (CC50) MB200 cells were grown until 80% confluent in F10 media supplemented with rhFGF basic (10 ng/ml), 15% fetal bovine serum, 1% penicillin streptomycin, 1% amphotericin B, and 1 μM dexamethasone. Adherent MB200 cells growing on 10 cm plate were then trypsinized with 1 ml of trypsin. Once the cells detached from the plate, F10 media (10 mL) was added, and the cells were strained through a 70 μm cell strainer. The cells were counted using a mixture of 10 μL cell suspension with 10 μL of trypan blue. Once the total number of cells were counted, a dilution of 200 k/mL was prepared, and the cells were seeded with 10 k cells/well in a 96-well plate in triplicate, making sure to avoid seeding cells in the edges of the plate to avoid edge effects. Using a multichannel pipet, the 200 k/mL cell dilution (50 μL/well) was added into wells B2-B11, C2-C11, and D2-D11 in triplicate. Into a deep well block (DWB), the media for the appropriate cell line (450 μL/well) was added into wells 1-10. Into DWB well 2, 10 mM of drug solution (13.5 μL) was added, followed by an additional volume of the medium (225 μL). The well was pipetted up/down four times. A portion (225 μL) was transferred to well 3, and this process was repeated up to well 10. Using a multichannel pipet, a smaller portion (50 μL/well) was removed from all wells in the DWB and then dispensed on top of the cells in each corresponding row. After adding the drug, the plate was incubated at 37° C. for 72 h. Using a multi-channel pipet, pre-warmed cell titer glo reagent (Promega) (100 μL) was added into every well. After 5 minutes, the total luminescence was measured with a luminometer. CC50 was determined with GraphPad prism template.

MBD3L2 RNA = test: RNA isolation and qPCR to determine MBD3L2 RNA levels in FSHD cells; settings: 48 hrs
Description: Protocol for RNA Isolation and qPCR to Determine MBD3L2 RNA Levels The protocol describes the process of isolating RNA from cultured cells, converting the RNA to complementary DNA (cDNA), and measuring target gene expression using a quantitative polymerase chain reaction (qPCR). The seed FSHD cells were dispensed into a six-well dish. One day after seeding, the DUX4 inhibitor (11 μM or 3.6 μM/well) was added to the cells. After another 48 hrs, the old media was removed from the cells. The cells were washed with 2 mL of warm phosphate buffered saline (PBS). The PBS was aspirated, and the cells were lysed in each well with 350 μL of RLT buffer+3.5 μL of beta-mercaptoethanol (BME). The lysates were added to fresh, RNAse-free, labeled Eppendorf tubes. The cells were then physically disrupted for […] at level 4 of the bead disrupter to ensure the release of the RNA. The RNA was collected according to standard procedures (i.e., Qiagen kit instructions) as discussed below. The RNA concentrations were standardized to […]. In a PCR tube, RNA (2 μg) in a new Eppendorf tube was diluted with RNase-free water to a 9.5 μL final volume of […] RNA. DNase was used to remove any DNA contamination. A DNase Master Mix was prepared from 1.5 μL/reaction DNase solution (1 unit/μL, Promega), 3 μL/reaction 5× RT buffer (i.e., 250 mM Tris-HCl (pH 8.3), 375 mM KCl, 15 mM MgCl2, and 500 μl 0.1 M DTT; Promega MMLV), and 1 μL/reaction RNase inhibitor solution (RNasin, 40 units/μL, Promega). The DNase Master Mix was added to the standardized RNA samples (5.5 μL/sample). The samples were mixed by agitation and briefly spun down by centrifuge. The samples were heated to 37° C. for 60 min, 80° C. for 5 min, and then cooled to 4° C. The samples were stored on ice until the addition of the next reagents. An RT Reaction Master Mix was prepared from 5 μL/reaction 5× RT buffer, 2 μL/reaction dNTP solution (2.5 mM in each nucleotide), 1 μL/reaction RNase inhibitor solution (RNasin, 40 units/μL, Promega), 1.6 μL/reaction M-MLV reverse transcriptase (200 units/μL, Promega), and 13.4 μL/reaction deionized, RNase-free water. The RT Reaction Master Mix was cooled on ice until use. A 50 μM solution of Random Primer 6 random hexanucleotides (2 μL) was added to each sample. The samples were mixed by agitation and briefly spun down by centrifuge. The samples were heated to 70° C. for 5 min and then cooled to 4° C. The RT Reaction Master Mix (23 μL) was added to each sample. The samples were mixed by agitation and briefly spun down by centrifuge. To convert the RNA to cDNA, the samples were heated to 42° C. for 60 min, 95° C. for 5 min, and then cooled to 4° C. The cDNA product mixture was diluted 5:1 with deionized water (40 μL+160 μL). The samples were run in triplicate, with a methyl-CpG-binding protein 3-like 2 (MBD3L2) target primer and a eukaryotic translation elongation factor 1-alpha (EEF1A) control primer. An qPCR Master Mix was prepared for each primer and stored on ice (4° C.) until use. The qPCR Master Mix included 10 μL/reaction SYBR Green Mix (2×) (ThermoFisher), 1 μL/reaction of the primer mix (i.e., the MBD3L2 PCR Primer mix or the EEF1A Primer mix), and 4 μL/reaction deionized, RNase-free water. To set up the qPCR plate, 15 μL of the appropriate qPCR Master Mix was added to the appropriate wells for each target/primer. After all the targets/primers have been added to the wells, 5 μL of the sample was added to the corresponding wells so that each well is 20 μL total. The plate was covered with a clear sheet. An qPCR run was set up (QuantStudio 5) with the following cycle: […]

[2] = Cell cytotoxicity 50 assay (CC50), HEK cells; settings: human
Description: Cell Cytotoxicity 50 Assay Protocol (CC50) Into a deep well block (DWB), the media for the appropriate cell line (450 μL/well) was added into wells 1-10. Into DWB well 2, 10 mM of drug solution (13.5 μL) was added, followed by an additional volume of the medium (225 μL). The well was pipetted up/down four times. A portion (225 μL) was transferred to well 3, and this process was repeated up to well 10. Using a multichannel pipet, a smaller portion (50 μL/well) was removed from all wells in the DWB and then dispensed on top of the cells in each corresponding row. After adding the drug, the plate was incubated at 37° C. for 72 h. Using a multi-channel pipet, pre-warmed cell titer glo reagent (Promega) (100 μL) was added into every well. After 5 minutes, the total luminescence was measured with a luminometer. CC50 was determined with GraphPad prism template.

Row | Compound | CC50 at 72 h [1] [µM] | qPCR MBD3L2 Inhib at 11 µM (MBD3L2 RNA) | CC50 at 72 h [2] [µM]
1 | O=C(CCCc1cccnc1)NC1CCC(c2nc3ccccc3s2)CC1 (stereo not drawn) [Compound 61] | > 10 | YES | > 10
2 | CC(=O)NCCCC(=O)Nc1ccc(-c2ncc(-c3ccccc3)s2)cc1 [Compound 132] | > 10 | – | > 10
3 | O=C(CCN1CCCC1=O)Nc1ccc(C(=O)c2nc3ccccc3s2)cc1 [Compound 50] | > 10 | – | > 10
4 | CC(=O)NCCC(=O)Nc1ccc(-c2nc3cc(Cl)ccc3s2)cc1 [Compound 47] | > 10 | – | > 10
5 | O=C(CCN1CCCC1=O)Nc1ccc(-c2nc3ccccc3s2)cc1 [Compound 18] | > 10 | YES | > 10
6 | CC(=O)OCCCC(=O)Nc1ccc(-c2nc3ccccc3s2)cc1 [Compound 19] | > 10 | – | > 10
7 | O=C(CCCc1cnco1)Nc1coc(-c2nc3ccccc3s2)c1 [Compound 68] | > 10 | – | > 10
8 | O=C(CCCc1cccnc1)Nc1ccc(Cc2nc3ccccc3s2)cc1 [Compound 60] | > 10 | YES | > 10
9 | O=C(CCc1ncccn1)Nc1ccc(-c2nc3ccccc3s2)cc1 [Compound 51] | > 10 | – | > 10
10 | CC(=O)NCCCC(=O)Nc1ccc(-c2nc3ccc(C)cc3s2)cc1 [Compound 15] | > 10 | YES | > 10
11 | O=C(CCCN1C(=O)CCC1=O)Nc1ccc(-c2nc3ccccc3s2)o1 [Compound 168] | > 10 | – | > 10
12 | CC(=O)NCCCC(=O)Nc1ccc(-c2nc3cc(F)c(F)cc3s2)cc1 [Compound 84] | > 10 | YES | > 10
13 | CC(=O)NCCCC(=O)NCc1ccc(-c2nc3ccccc3s2)cc1 [Compound 105] | > 10 | YES | > 10
14 | O=C1CCC(=O)N1[C@H]1C[C@H](C(=O)Nc2ccc(-c3nc4ccccc4s3)cc2)C1 [Compound 96] | > 10 | – | > 10
15 | CC(=O)NCCCC(=O)Nc1ccc(-c2nc3ccccc3s2)c(C)c1 [Compound 129] | > 10 | YES | > 10
16 | O=C(CCCc1cccnc1)Nc1coc(-c2nc3ccccc3s2)c1 [Compound 62] | > 10 | YES | > 10
17 | O=C(CCc1nnc[nH]1)Nc1ccc(-c2nc3ccccc3s2)cc1 [Compound 39] | > 10 | YES | > 10
18 | CC(=O)NCCC(=O)Nc1ccc(-c2nc3ccc(C)cc3s2)cc1 [Compound 35] | > 10 | – | > 10
19 | O=C(CCC1CCC(=O)N1)Nc1ccc(-c2nc3ccccc3s2)cc1 (stereo not drawn) [Compound 176] | 1 to 10 | – | > 10
20 | CC(=O)NCCCC(=O)Nc1ccc(-c2ncc(Cl)s2)cc1 [Compound 78] | > 10 | – | > 10

Row | Compound | CC50 at 72 h [1] [µM] | qPCR MBD3L2 Inhib at 11 µM (MBD3L2 RNA) | CC50 at 72 h [2] [µM]
21 | O=C(CCc1ccncc1)Nc1ccc(-c2nc3ccccc3s2)cc1 [Compound 12] | > 10 | – | > 10
22 | O=C(CCn1ccnn1)Nc1ccc(-c2nc3ccccc3s2)cc1 [Compound 48] | > 10 | – | > 10
23 | CC(=O)NCCCC(=O)Nc1ccc(-c2nc3ccccc3s2)cc1C [Compound 125] | > 10 | – | > 10
24 | O=C(CCN1C(=O)CCC1=O)Nc1ccc(-c2nc3ccccc3s2)o1 [Compound 24] | > 10 | – | > 10
25 | CCOCCCC(=O)Nc1ccc(-c2nc3ccccc3s2)cc1 [Compound 3] | 1 to 10 | – | 1 to 10
26 | CC(=O)NCCC(=O)Nc1ccc(-c2nc3ccc(F)cc3s2)cc1 [Compound 45] | > 10 | – | > 10
27 | O=C(CCc1cocn1)Nc1ccc(-c2nc3ccccc3s2)cc1 [Compound 57] | > 10 | – | > 10
28 | CC(=O)NC1CC1C(=O)Nc1ccc(-c2nc3ccccc3s2)cc1 (stereo not drawn) [Compound 100] | > 10 | – | > 10
29 | N#CCCCC(=O)Nc1ccc(-c2nc3ccccc3s2)cc1 [Compound 124] | > 10 | – | > 10
30 | O=C(CCCc1cocn1)Nc1ccc(-c2nc3cc(F)ccc3s2)cc1 [Compound 99] | > 10 | – | > 10
31 | CC(=O)CCCC(=O)Nc1ccc(-c2nc3ccc(C)cc3s2)cc1 [Compound 4] | > 10 | – | > 10
32 | O=C(CCN1C(=O)CCC1=O)Nc1ccc(-c2nc3ccccc3s2)cn1 [Compound 6] | > 10 | – | > 10
33 | CC(=O)NCCC(=O)Nc1ccc(-c2nc3cnccc3s2)cc1 [Compound 58] | > 10 | – | > 10
34 | O=C(CCCN1C(=O)CCC1=O)Nc1nc2ccccc2s1 [Compound 82] | > 10 | – | > 10
35 | CCOCCCC(=O)Nc1ccc(-c2nc3ccc(C)cc3s2)cc1 [Compound 17] | 1 to 10 | – | 1 to 10
36 | Cc1ccc2nc(-c3ccc(NC(=O)CCN4C(=O)CCC4=O)cc3)sc2c1 [Compound 2] | 1 to 10 | – | > 10
37 | O=C(CCCc1cnco1)Nc1ccc(-c2nc3ccccc3s2)cc1 [Compound 63] | > 10 | – | 1 to 10
38 | CC(=O)CCCC(=O)Nc1ccc(-c2nc3ccccc3s2)cc1 [Compound 20] | > 10 | – | > 10
39 | CC(=O)NCCC(=O)Nc1coc(-c2nc3ccccc3s2)c1 [Compound 42] | > 10 | – | > 10
